Data as given in the supplement of paper PMC6045584.
± gives the standard deviation of the averaged measurements.

Columns and labels:
SORAFENIB = compound: CNC(=O)c1cc(Oc2ccc(NC(=O)Nc3ccc(Cl)c(C(F)(F)F)c3)cc2)ccn1 [SORAFENIB]; assay: surviving fraction relative to DMSO-only wells; higher = less growth inhibition; details: exposure time: 5 days
In short: (§1)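 Surviving fraction is CellTiter-Glo luminescence divided by the median of wells given DMSO only. For this, log-phase tumour cell lines went into 384-well plates at 250–500 cells per well and, 24 hours later, into five days of continuous inhibitor exposure at 0.5, 1, 5, 10, 50, 100, 500 and 1000 nM. Lines were screened three times and retained only if replicate Pearson r >0.7 and median Z' >0.3.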

TEMOZOLOMIDE = compound: Cn1nnc2c(C(N)=O)ncn2c1=O [TEMOZOLOMIDE]; assay: as above; details: exposure time: 5 days
In short: as §1

Test System | surviving fraction (SORAFENIB; 0.5 nM) | surviving fraction (SORAFENIB; 1 nM) | surviving fraction (SORAFENIB; 10 nM) | surviving fraction (SORAFENIB; 50 nM) | surviving fraction (SORAFENIB; 100 nM) | surviving fraction (SORAFENIB; 1000 nM) | surviving fraction (TEMOZOLOMIDE; 0.5 nM) | surviving fraction (TEMOZOLOMIDE; 1 nM) | surviving fraction (TEMOZOLOMIDE; 5 nM) | surviving fraction (TEMOZOLOMIDE; 10 nM) | surviving fraction (TEMOZOLOMIDE; 50 nM) | surviving fraction (TEMOZOLOMIDE; 100 nM) | surviving fraction (TEMOZOLOMIDE; 500 nM) | surviving fraction (TEMOZOLOMIDE; 1000 nM) | surviving fraction (SORAFENIB; 5 nM) | surviving fraction (SORAFENIB; 500 nM)
LM7 BONE | 0.938 ± 0.057 | 0.97 ± 0.048 | 1.01 ± 0.066 | 1.11 ± 0.14 | 1.04 ± 0.054 | 1.05 ± 0.033 | 0.916 ± 0.081 | 0.989 ± 0.086 | 1.04 ± 0.085 | 1.05 ± 0.049 | 1.05 ± 0.077 | 1.09 ± 0.022 | 0.968 ± 0.065 | 0.967 ± 0.04 |  | 
LNCAP PROSTATE | 1.01 ± 0.084 |  | 1.06 ± 0.08 | 0.902 ± 0.23 |  | 0.853 ± 0.17 | 0.966 ± 0.088 | 0.915 ± 0.073 | 0.985 ± 0.17 | 0.8907 ± 0.0074 | 0.93 ± 0.034 | 0.963 ± 0.092 | 0.897 ± 0.037 | 0.924 ± 0.083 | 1 ± 0.082 | 0.887 ± 0.12
MCF7 BREAST | 0.866 ± 0.025 | 0.86 ± 0.068 | 0.851 ± 0.022 | 0.928 ± 0.047 | 0.939 ± 0.034 | 0.873 ± 0.025 | 0.889 ± 0.03 | 0.932 ± 0.023 | 0.934 ± 0.027 | 0.907 ± 0.054 | 0.922 ± 0.031 | 0.941 ± 0.037 | 0.958 ± 0.058 | 0.987 ± 0.034 | 0.904 ± 0.021 | 0.995 ± 0.074
MDAMB134 BREAST | 1.04 ± 0.067 | 1.26 ± 0.12 | 1.02 ± 0.031 | 1.06 ± 0.053 | 1.14 ± 0.091 |  | 0.928 ± 0.0085 | 0.981 ± 0.033 | 0.926 ± 0.14 | 0.902 ± 0.15 | 0.975 ± 0.23 | 1.05 ± 0.17 | 0.953 ± 0.2 | 1.11 ± 0.08 | 1.06 ± 0.033 | 1.21 ± 0.18
MDAMB157 BREAST | 0.962 ± 0.016 | 0.909 ± 0.064 | 0.923 ± 0.046 |  | 1.01 ± 0.059 |  | 1.02 ± 0.067 | 0.986 ± 0.046 | 0.968 ± 0.09 | 1.1 ± 0.074 | 0.953 ± 0.06 | 1.11 ± 0.028 | 0.927 ± 0.055 | 0.954 ± 0.1 | 0.984 ± 0.03 | 0.963 ± 0.036
MDAMB231 BREAST | 0.99 ± 0.025 | 0.995 ± 0.014 | 0.905 ± 0.014 | 0.887 ± 0.014 | 0.936 ± 0.05 | 0.929 ± 0.016 | 0.9454 ± 0.0069 | 0.992 ± 0.024 | 0.9815 ± 0.008 | 1.01 ± 0.016 | 0.986 ± 0.013 | 0.998 ± 0.023 | 0.975 ± 0.015 | 0.985 ± 0.025 | 0.924 ± 0.036 | 
MDAMB361 BREAST | 0.813 ± 0.078 | 0.862 ± 0.089 |  | 0.909 ± 0.034 | 0.837 ± 0.03 | 0.84 ± 0.098 | 0.914 ± 0.14 | 0.93 ± 0.017 | 0.917 ± 0.15 | 0.889 ± 0.1 | 0.983 ± 0.16 | 0.925 ± 0.037 | 0.945 ± 0.1 | 0.908 ± 0.042 | 0.904 ± 0.029 | 0.796 ± 0.049
MDAMB436 BREAST | 0.966 ± 0.04 | 0.992 ± 0.046 | 0.949 ± 0.085 |  | 0.961 ± 0.043 | 0.855 ± 0.019 | 0.976 ± 0.14 | 1.03 ± 0.15 | 0.997 ± 0.13 | 1.09 ± 0.17 | 0.936 ± 0.1 | 1.04 ± 0.14 | 1.03 ± 0.11 | 0.959 ± 0.051 | 0.977 ± 0.057 | 
MDAMB453 BREAST | 1.08 ± 0.064 |  | 1.09 ± 0.011 | 1.12 ± 0.056 | 1.12 ± 0.091 | 1.04 ± 0.047 | 1.07 ± 0.015 | 1.097 ± 0.0087 | 1.13 ± 0.016 | 1.1 ± 0.076 | 1.14 ± 0.058 | 1.09 ± 0.11 | 1.07 ± 0.075 | 1.09 ± 0.056 | 1.11 ± 0.074 | 
MDAMB468 BREAST | 1 ± 0.083 |  | 1.09 ± 0.072 | 1.28 ± 0.073 | 1.26 ± 0.12 | 1.21 ± 0.051 | 0.983 ± 0.086 | 1.13 ± 0.045 | 1.114 ± 0.0027 | 1.17 ± 0.075 | 1.09 ± 0.07 | 1.15 ± 0.045 | 1.03 ± 0.1 | 1.12 ± 0.091 | 1.15 ± 0.062 | 1.23 ± 0.029
MFM223 BREAST | 1.18 ± 0.021 | 1.16 ± 0.048 | 1.15 ± 0.047 | 1.23 ± 0.13 | 1.14 ± 0.081 | 0.742 ± 0.08 | 1.46 ± 0.65 | 1.38 ± 0.44 | 1.5 ± 0.54 | 1.49 ± 0.63 | 1.38 ± 0.52 | 1.19 ± 0.07 | 1.38 ± 0.48 | 1.17 ± 0.08 | 1.23 ± 0.08 | 1.06 ± 0.13
MG63 BONE | 0.996 ± 0.025 | 1 ± 0.018 | 1.015 ± 0.0067 | 1.13 ± 0.014 | 1.13 ± 0.031 | 1.12 ± 0.012 | 0.964 ± 0.016 | 1.01 ± 0.036 | 1.03 ± 0.026 | 1.09 ± 0.035 | 1.01 ± 0.032 | 1.1 ± 0.047 | 0.997 ± 0.031 | 1.02 ± 0.032 | 1.044 ± 0.01 | 1.1 ± 0.025
MHM BONE | 0.977 ± 0.025 | 1.01 ± 0.024 | 1.06 ± 0.051 | 1.071 ± 0.0061 | 1.08 ± 0.024 |  | 0.9827 ± 0.0021 | 0.975 ± 0.007 | 1.01 ± 0.043 | 1.04 ± 0.014 | 0.998 ± 0.042 | 1.03 ± 0.029 | 0.973 ± 0.032 | 0.998 ± 0.0056 |  | 1.1 ± 0.034
NCIH441 LUNG | 1.12 ± 0.014 | 1.07 ± 0.028 | 0.967 ± 0.042 | 0.992 ± 0.023 | 0.99 ± 0.12 | 0.834 ± 0.016 | 1.07 ± 0.065 | 1.14 ± 0.06 | 1.21 ± 0.059 | 1.06 ± 0.066 | 1.04 ± 0.081 | 1.13 ± 0.074 | 1.11 ± 0.086 | 1.19 ± 0.058 | 1.12 ± 0.12 | 0.927 ± 0.04
NOS1 BONE | 1.04 ± 0.11 |  | 0.997 ± 0.058 | 0.995 ± 0.053 | 0.874 ± 0.056 | 0.613 ± 0.062 | 0.881 ± 0.071 | 1.01 ± 0.077 | 1.16 ± 0.11 | 1.16 ± 0.049 | 1.25 ± 0.099 | 1.15 ± 0.067 | 1.01 ± 0.076 | 1.06 ± 0.14 | 1.12 ± 0.17 | 0.684 ± 0.0075
NY BONE | 1.01 ± 0.019 | 0.975 ± 0.033 | 1.01 ± 0.027 | 1.08 ± 0.036 | 1.07 ± 0.044 | 1.034 ± 0.0083 | 1.01 ± 0.033 | 1.05 ± 0.018 | 1.01 ± 0.066 | 1.09 ± 0.035 | 1.063 ± 0.004 | 1.09 ± 0.029 | 1.014 ± 0.0032 | 1.02 ± 0.013 | 1.04 ± 0.035 | 1.02 ± 0.013
OS25HAL BONE | 0.99 ± 0.023 | 0.984 ± 0.0092 |  | 1.06 ± 0.018 | 1.01 ± 0.049 | 0.645 ± 0.056 | 1.02 ± 0.037 | 1.09 ± 0.031 | 1.06 ± 0.019 | 1.11 ± 0.023 | 1.02 ± 0.033 | 1.09 ± 0.03 | 1.07 ± 0.051 | 1.08 ± 0.041 | 1.03 ± 0.035 | 0.855 ± 0.077
OSHN BONE | 1.06 ± 0.024 | 1.047 ± 0.0099 | 1.05 ± 0.015 | 1.09 ± 0.037 | 1.06 ± 0.014 | 1.05 ± 0.013 | 1.05 ± 0.014 | 1.08 ± 0.018 | 1.06 ± 0.018 | 1.13 ± 0.035 | 1.07 ± 0.016 | 1.1 ± 0.028 | 1.081 ± 0.0068 | 1.1 ± 0.018 | 1.07 ± 0.018 | 1.08 ± 0.025
PCI30 HEADNECK | 1.04 ± 0.038 |  | 1.04 ± 0.06 | 1.06 ± 0.098 | 1.11 ± 0.096 | 1.12 ± 0.013 | 0.957 ± 0.026 | 0.976 ± 0.067 | 0.988 ± 0.023 | 1.04 ± 0.043 | 1.07 ± 0.047 | 1.05 ± 0.041 | 0.937 ± 0.013 | 0.939 ± 0.03 | 1.02 ± 0.045 | 1.11 ± 0.059
RDES SOFT TISSUE | 1.24 ± 0.085 | 1.12 ± 0.098 | 0.918 ± 0.1 | 1.15 ± 0.058 | 1.24 ± 0.066 | 1.09 ± 0.1 | 1.11 ± 0.033 | 1.2 ± 0.06 | 1.14 ± 0.088 | 1.02 ± 0.12 | 1.15 ± 0.13 | 1.3 ± 0.14 | 1.27 ± 0.15 | 1.34 ± 0.17 | 1.18 ± 0.1 | 1.18 ± 0.13
S68 BREAST |  | 0.963 ± 0.22 | 1.13 ± 0.18 | 1.29 ± 0.099 | 1.12 ± 0.27 | 0.895 ± 0.32 | 0.996 ± 0.22 | 1.07 ± 0.034 | 1.08 ± 0.18 | 1.06 ± 0.12 | 1.04 ± 0.044 | 1.09 ± 0.25 | 1.05 ± 0.078 | 1.29 ± 0.24 | 1.06 ± 0.083 | 1.02 ± 0.079
SAOS2 BONE | 0.935 ± 0.028 | 1.019 ± 0.0098 | 1.04 ± 0.064 | 1.17 ± 0.017 | 1.237 ± 0.0023 | 1.07 ± 0.079 | 1.1 ± 0.026 | 1.12 ± 0.099 | 1.25 ± 0.047 | 1.2 ± 0.05 | 1.2 ± 0.13 | 1.23 ± 0.081 | 1.16 ± 0.063 | 1.18 ± 0.14 | 1.072 ± 0.0081 | 1.196 ± 0.01
